This is an account of results in ChEMBL document CHEMBL3272133, “1-[4-(4-Chlorophenyl)-2-(2,6-dichlorophenylthio)-n-butyl]-1H-imidazole nitrate, a new potent antifungal agent” (J Med Chem, 1978).

The subject of experiment [1] is Candida albicans. Description: Antifungal activity against Candida albicans infected in mouse assessed as noninfected animals at 100000 U/g administered vaginally bid for 4 days measured 6 hrs post last dose relative to placebo. In kind it is functional, organism-based.
Experiment [2] deals with Candida albicans. Description: Antifungal activity against Candida albicans infected in mouse assessed as noninfected animals at 100000 U/g administered vaginally bid for 4 days measured on day 7 relative to placebo. The format is functional, organism-based.
Experiment [3] relates to Candida albicans. Put plainly: Antifungal activity against Candida albicans infected in mouse assessed as noninfected animals at 1% formulation in neat PEG 400 solution administered vaginally bid for 4 days measured on day 7 relative to placebo. In kind it is functional.
Experiment [4] has as its system Candida albicans. Put plainly: Antifungal activity against Candida albicans infected in mouse assessed as noninfected animals at 1% formulation in neat PEG 400 solution administered vaginally bid for 4 days measured 6 hrs post last dose relative to placebo. The format is functional.

On to NYSTATIN, for which the Activity was found to be 10% in the experiment on Candida albicans [1] and 0% with Candida albicans [2].

In the case of `Clc1ccccc1C(c1ccccc1)(c1ccccc1)n1ccnc1` [CLOTRIMAZOLE], the Activity came out at 55% in the experiment with Candida albicans [3] and 85% with Candida albicans [4].
